Assay [1] has as its system B-lymphocytes and T-cell populations. As to conditions: cited from earlier work.
A further assay has as its system human PBMCs. The assay can be described thus: In vitro sensitivity of human PBMCs. In kind it is cell-based. As to the method:
Human PBMCs were thawed and cultured overnight in 30 U/mL of interleukin-2 (IL-2). Cells were harvested, washed once with complete media and counted. PBMCs were plated at a density of 5×10^5 cells per well in a 48-well plate with 30 U/mL IL-2. For stimulation of T-cells, cells were plated in anti-CD3-coated wells (2.5 μg/mL; ThermoFisher cat. #16-0037-85, clone OKT3) and soluble anti-CD28 was added (1 μg/mL; ThermoFisher cat. #16-0289-85, clone CD28.2). Cells were treated with increasing concentrations of venetoclax for 24 hours (dimethyl sulfoxide (DMSO) was used as control). Cells were harvested, stained and subjected to flow cytometry analysis with a BD LSRII instrument (BD Biosciences)
However, when PBMCs were stimulated with anti-CD3 and anti-CD28 for 72 hours before treating with venetoclax, the T-cells were not sensitive to venetoclax. (FIG. 7B). While the proportion of naïve T-cells (CD4^+CD62L^+CD45RO^− and […]) decreased with increasing venetoclax concentrations, the proportion of CD4^+ central memory (TCM; CD62L^+CD45RO^+) and CD8^+ terminally differentiated effector memory (TEMRA; CD8^+CD62L^−CD45RO^−) and effector memory cells (TEM; CD8^+CD62L^−CD45RO^+) increased relative to the number of surviving T-cells (FIGS. 8A and 8C). […] In separate experiments, human PBMCs were thawed, rested overnight and then treated with venetoclax for 24 hours. Similar results were observed when increasing the number of tested samples (n=9 donors), and refining the markers for the different T-cell subsets: naïve T-cells (TN; CD62L+CD45RA+), central memory (TCM; CD62L+CD45RA−), effector memory cells (TEM; CD62L−CD45RA−) and terminally differentiated effector memory (TEMRA; CD62L−CD45RA+) (FIGS. 8E, 8F, 8G). Venetoclax decreases the proportion of naïve T-cells, but not memory cells, and specifically induces an increase in effector memory T-cells. It can therefore be seen that, while naïve T- and B-cells were sensitive to venetoclax, memory T-cells were less sensitive to venetoclax. While TCM cells home to lymph nodes and efficiently stimulate dendritic cells, TEM and TEMRA cells home to tissues, comprised of antigen-experienced cells and are ready to mediate rapid effector and cytotoxic functions necessary to kill the tumor.

The next assay has as its system EMT6 tumors. Nature of the assay: EMT6 mouse mammary carcinoma syngeneic model. It counts as in vivo. As to conditions: EMT6; venetoclax 50 mg/kg daily for 14 days. As to the method: All experiments were conducted in compliance with the National Institutes of Health Guide for Care and Use of Laboratory Animals guidelines in a facility accredited by the Association for the Assessment and Accreditation of Laboratory Animal Care (AAALAC). BALB/c, C57BL/6, CB6F1 (C57BL/6 bred with BALB/c) and SCID mice were obtained from Charles River (Wilmington, Mass.). SCID mice have severe combined immune deficiency (SCID) and are characterized by an absence of functional T- and B-cells.
EMT6, mouse mammary carcinoma and CT26, mouse colon carcinoma, cell lines were obtained from ATCC (Manassas, Va.). MC38, mouse colon carcinoma cell line was obtained from National Cancer Institute (NCI).
Compound (I),venetoclax, was formulated in 10% ethanol+30% PEG 400+60% Phosal® 50PG. Venetoclax was administered orally once a day for 14 days at 50 mg/kg/day.
1×10^5 CT26, EMT6 or MC38 cells were subcutaneously injected with Matrigel into the flanks of BALB/c, CB6F1 or C57BL/6 mice, respectively. Seven days later, mice were randomized to treatment groups of vehicle, venetoclax, anti-PD-1/PD-L1 or the combination of venetoclax and anti-PD-1/PD-L1. Tumor volume was determined via measurements of the length (L) and width (W) of the tumor with electronic calipers and the volume was calculated according to the following equation: V=L×W2/2 using Study Director Version 2.1.11 (Studylog Systems Inc., South San Francisco). Complete response (CR) was defined as reduction in tumor volume to ≤25 mm^3 over at least 3 successive measurements.

Another assay relates to CMV-positive human PBMCs. The assay can be described thus: CMV recall assay using human CMV+ PBMC. In kind it is cell-based. As to the method:
The cytomegalovirus (CMV) recall assay was used to assess the functional effects of Compound (I) on antigen-specific immune cells. This assay used CMV antigen to stimulate pre-existing memory T-cells in CMV-positive human PBMCs. Human CMV-positive PBMCs and CMV antigen were purchased from Astarte Biologics (Cat.No:1001 and Cat. No. 1004, respectively). To measure whether T cells from CMV-positive donor are functionally active, 2×10^5 CMV-positive PBMCs were stimulated with 0.05 μg/mL of CMV antigen and at the same time venetoclax was added. The cells were cultured in Roswell Park Memorial Institute (RPMI) media supplemented with 10% fetal bovine serum (FBS). On day 4, cells were quickly re-stimulated with phorbol 12-myristate-13-acetate (PMA, 0.08 μM)/ionomycin (1.3 μM) and treated with brefeldin A (5 μg/mL) for 4 hours. Cells were stained with the following commercial antibodies: CD3, CD4, IFNγ, and IL-2 (all from Biolegend), as well as with the Zombie Green™ fixable viability kit. Cells were analyzed using an LSRFortessa™ X-20 instrument (BD Biosciences).
The remaining live cells were gated by CD3 and CD4 expression whereas CD3^+CD4^+ cells were considered as CD4^+ T-cells and CD3^+CD4^− cells were considered as CD8^+ T-cells. Production of IFNγ and IL-2 cytokines by CD8+ T-cells was assessed by flow cytometry (FIG. 10B, 10C).

Where [2] appears, read: unstimulated, increasing concentrations.

`CC1(C)CCC(CN2CCN(c3ccc(C(=O)NS(=O)(=O)c4ccc(NCC5CCOCC5)c([N+](=O)[O-])c4)c(Oc4cnc5[nH]ccc5c4)c3)CC2)=C(c2ccc(Cl)cc2)C1` [Compound (I), venetoclax]: in assay [1] (Lu et al. 2017, Khaw et al. 2014), the “reductions in T-cell populations” value is “up to 30%”. Further, the “reductions in B-lymphocytes” value in assay [1] (clinically and in experimental studies) is recorded as “significant reductions”. Moreover, in the assay with human PBMCs (CD3/CD28 stimulated conditions), the “proportion of the T-cell subsets” value is reported as “did not affect”. For the same compound, in the assay with human PBMCs (PBMCs stimulated with anti-CD3 and anti-CD28 for 72 hours before treatment), the “sensitivity of T-cells” value is “not sensitive”. The “number of B-cells and T-cells (CD4+ and CD8+)” value in the assay with human PBMCs (unstimulated PBMCs cultured 72 hours, then 24 hours treatment) was “dose-dependent decrease”. In the assay on human PBMCs (setting [2]), the “proportion of CD4+ TCM, CD8+ TEMRA and CD8+ TEM cells relative to surviving T-cells” value is given as “increased”; the “proportion of naïve T-cells” value is “decreased”. The “anti-tumor activity as single agent” value in the assay with EMT6 tumors is “modest activity”. For the same compound, in the assay on CMV-positive human PBMCs (0.05 μg/mL CMV antigen, day 4), the “total number of lymphocytes” value was “reduced the total number of lymphocytes in a dose-dependent manner”. For the same compound, in the assay with CMV-positive human PBMCs (CMV antigen, re-stimulated with PMA/ionomycin on day 4), the “remaining T-cell activation, MFI of IFNγ and IL-2 (CD8+ T-cells)” value was “dose-dependent inversely proportional increase”.

Source of the values: patent publication US20190336496A1, “SELECTIVE BCL-2 INHIBITORS IN COMBINATION WITH AN ANTI-PD-1 OR AN ANTI-PD-L1 ANTIBODY FOR THE TREATMENT OF CANCERS” (AbbVie Inc., priority 2018, published 2019).
